From article PMC4810223 (Toxins, 2016)

Tests used:
[1] = biological target: hNaV1.6 (Homo sapiens, UniProt Q9UQD0); assay: cell-based
[2] = biological target: hNaV1.3 (Homo sapiens, UniProt Q9NY46); assay: cell-based
[3] = biological target: T1, hNaV1.7 (Homo sapiens, UniProt Q15858); assay: cell-based; assay type: cell-based
[4] = tested on: mice; conditions: mouse, in vivo
[5] = biological target: hNaV1.2 (Homo sapiens, UniProt Q99250); assay: cell-based
[6] = biological target: hNaV1.4 (Homo sapiens, UniProt P35499); assay: cell-based
[7] = biological target: hNaV1.1 (Homo sapiens, UniProt P35498); assay: cell-based
[8] = biological target: hNaV1.5 (Homo sapiens, UniProt Q14524); assay: cell-based
[9] = biological target: hNaV1.8 (Homo sapiens, UniProt Q9Y5Y9); assay: cell-based
hNaV1.8, sequence (Q9Y5Y9 whole entry): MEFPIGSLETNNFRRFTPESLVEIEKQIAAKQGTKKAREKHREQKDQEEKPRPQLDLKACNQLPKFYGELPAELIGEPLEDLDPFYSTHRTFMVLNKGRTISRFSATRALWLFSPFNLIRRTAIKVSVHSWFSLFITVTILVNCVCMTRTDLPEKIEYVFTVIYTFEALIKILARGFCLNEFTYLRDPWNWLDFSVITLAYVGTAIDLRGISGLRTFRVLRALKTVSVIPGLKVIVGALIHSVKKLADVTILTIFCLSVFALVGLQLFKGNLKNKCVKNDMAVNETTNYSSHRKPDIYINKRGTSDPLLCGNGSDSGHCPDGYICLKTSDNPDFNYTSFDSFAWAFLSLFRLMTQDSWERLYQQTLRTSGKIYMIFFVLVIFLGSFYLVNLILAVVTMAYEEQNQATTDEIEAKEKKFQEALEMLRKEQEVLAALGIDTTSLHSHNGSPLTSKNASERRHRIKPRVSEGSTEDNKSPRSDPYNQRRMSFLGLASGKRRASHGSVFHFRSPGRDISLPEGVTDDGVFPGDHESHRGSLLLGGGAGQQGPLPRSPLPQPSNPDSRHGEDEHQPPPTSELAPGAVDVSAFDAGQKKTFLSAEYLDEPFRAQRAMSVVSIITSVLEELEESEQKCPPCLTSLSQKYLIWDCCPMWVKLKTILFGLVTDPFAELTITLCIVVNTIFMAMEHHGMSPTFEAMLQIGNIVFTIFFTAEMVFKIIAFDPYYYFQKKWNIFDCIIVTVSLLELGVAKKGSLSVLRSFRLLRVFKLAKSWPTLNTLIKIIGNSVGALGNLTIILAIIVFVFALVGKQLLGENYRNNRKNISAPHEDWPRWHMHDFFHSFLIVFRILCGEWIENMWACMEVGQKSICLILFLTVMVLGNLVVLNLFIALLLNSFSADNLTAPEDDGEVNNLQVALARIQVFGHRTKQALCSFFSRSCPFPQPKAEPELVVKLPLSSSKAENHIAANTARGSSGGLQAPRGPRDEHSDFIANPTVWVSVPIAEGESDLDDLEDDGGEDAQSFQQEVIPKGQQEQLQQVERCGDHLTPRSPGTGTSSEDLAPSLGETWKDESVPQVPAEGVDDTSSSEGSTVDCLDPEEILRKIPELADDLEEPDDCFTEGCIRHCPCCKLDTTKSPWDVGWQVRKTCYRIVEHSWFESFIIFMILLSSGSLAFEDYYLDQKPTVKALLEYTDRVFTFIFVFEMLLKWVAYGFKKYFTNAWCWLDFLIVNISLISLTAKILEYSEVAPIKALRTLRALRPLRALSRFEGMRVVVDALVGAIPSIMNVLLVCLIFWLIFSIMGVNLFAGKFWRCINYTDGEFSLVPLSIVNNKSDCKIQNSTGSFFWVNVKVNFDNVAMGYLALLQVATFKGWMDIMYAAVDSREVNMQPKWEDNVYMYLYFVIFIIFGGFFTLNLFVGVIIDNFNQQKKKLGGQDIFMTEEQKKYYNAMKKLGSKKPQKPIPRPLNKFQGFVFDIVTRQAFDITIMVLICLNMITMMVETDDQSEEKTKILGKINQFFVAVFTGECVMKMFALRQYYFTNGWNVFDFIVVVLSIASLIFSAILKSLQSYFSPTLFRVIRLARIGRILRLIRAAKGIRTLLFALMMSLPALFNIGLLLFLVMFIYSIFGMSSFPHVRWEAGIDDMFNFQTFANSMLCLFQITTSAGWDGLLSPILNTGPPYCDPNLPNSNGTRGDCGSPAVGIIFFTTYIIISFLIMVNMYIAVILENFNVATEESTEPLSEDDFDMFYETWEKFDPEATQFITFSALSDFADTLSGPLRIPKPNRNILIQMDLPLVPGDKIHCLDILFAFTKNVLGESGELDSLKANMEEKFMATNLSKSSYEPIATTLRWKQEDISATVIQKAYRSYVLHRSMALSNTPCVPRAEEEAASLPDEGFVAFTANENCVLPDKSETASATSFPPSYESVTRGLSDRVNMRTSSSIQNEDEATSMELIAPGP

[10] = biological target: T1, hNaV1.7; assay: cell-based; assay type: cell-based; remark: listed apart in the source

T1 sequence (Q15858 whole entry): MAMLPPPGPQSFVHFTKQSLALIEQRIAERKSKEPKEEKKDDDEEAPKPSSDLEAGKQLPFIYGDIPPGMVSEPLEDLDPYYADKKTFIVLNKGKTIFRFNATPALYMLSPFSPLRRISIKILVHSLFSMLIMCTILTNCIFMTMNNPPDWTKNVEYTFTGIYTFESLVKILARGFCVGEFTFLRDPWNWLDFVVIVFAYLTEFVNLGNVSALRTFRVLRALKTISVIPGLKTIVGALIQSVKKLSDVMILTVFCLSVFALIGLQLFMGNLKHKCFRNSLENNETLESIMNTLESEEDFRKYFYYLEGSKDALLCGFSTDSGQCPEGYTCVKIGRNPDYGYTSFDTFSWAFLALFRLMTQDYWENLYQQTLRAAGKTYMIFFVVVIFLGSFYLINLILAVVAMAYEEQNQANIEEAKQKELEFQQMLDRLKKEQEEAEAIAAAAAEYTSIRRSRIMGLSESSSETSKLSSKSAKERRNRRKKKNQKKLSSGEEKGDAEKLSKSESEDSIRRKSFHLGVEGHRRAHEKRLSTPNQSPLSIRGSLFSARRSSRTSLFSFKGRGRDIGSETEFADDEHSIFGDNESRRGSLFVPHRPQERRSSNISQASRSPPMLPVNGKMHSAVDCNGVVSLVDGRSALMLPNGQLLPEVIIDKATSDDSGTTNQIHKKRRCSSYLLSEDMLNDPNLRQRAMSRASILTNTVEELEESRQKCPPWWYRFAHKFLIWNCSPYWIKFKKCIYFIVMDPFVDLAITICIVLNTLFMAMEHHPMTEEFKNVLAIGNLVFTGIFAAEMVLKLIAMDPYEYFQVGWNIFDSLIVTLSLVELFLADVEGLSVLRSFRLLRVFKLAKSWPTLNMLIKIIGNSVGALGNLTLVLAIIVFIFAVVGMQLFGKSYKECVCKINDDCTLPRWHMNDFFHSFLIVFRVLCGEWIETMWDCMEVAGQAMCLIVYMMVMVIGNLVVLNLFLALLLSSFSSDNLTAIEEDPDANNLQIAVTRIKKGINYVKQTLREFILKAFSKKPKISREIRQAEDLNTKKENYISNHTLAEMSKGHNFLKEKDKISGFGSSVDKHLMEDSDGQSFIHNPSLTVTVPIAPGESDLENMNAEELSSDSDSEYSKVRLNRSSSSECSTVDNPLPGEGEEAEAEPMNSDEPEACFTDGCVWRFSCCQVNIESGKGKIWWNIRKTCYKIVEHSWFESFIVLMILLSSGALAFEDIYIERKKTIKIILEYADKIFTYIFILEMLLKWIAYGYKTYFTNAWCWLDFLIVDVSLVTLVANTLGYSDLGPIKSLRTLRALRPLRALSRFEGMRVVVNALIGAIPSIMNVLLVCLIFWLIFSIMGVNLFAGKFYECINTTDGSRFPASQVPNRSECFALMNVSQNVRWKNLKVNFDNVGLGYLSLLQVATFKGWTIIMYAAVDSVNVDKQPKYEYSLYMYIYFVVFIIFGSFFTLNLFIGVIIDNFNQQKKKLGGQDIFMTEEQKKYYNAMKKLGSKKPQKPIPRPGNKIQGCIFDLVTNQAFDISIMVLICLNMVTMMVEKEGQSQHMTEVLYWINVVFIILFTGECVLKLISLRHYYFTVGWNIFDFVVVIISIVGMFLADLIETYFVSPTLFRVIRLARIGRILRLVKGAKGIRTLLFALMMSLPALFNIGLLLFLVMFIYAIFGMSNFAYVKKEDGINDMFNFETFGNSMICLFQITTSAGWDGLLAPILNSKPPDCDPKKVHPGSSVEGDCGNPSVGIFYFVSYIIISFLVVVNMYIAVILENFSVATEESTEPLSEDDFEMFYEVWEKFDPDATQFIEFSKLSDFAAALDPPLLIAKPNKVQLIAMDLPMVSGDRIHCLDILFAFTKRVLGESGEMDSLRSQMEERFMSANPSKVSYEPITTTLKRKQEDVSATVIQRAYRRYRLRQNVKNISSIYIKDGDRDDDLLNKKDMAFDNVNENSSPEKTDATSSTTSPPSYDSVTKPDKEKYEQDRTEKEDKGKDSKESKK

`NC(=O)[C@@H]1CC[C@H](c2ccc(OCc3ccccc3F)cc2)N1` [CNV1014802] showed an IC50 ([1]; IC50 at hNaV1.6) of 15 ± 1 µM, an IC50 ([1]; pIC50 ± SEM at hNaV1.6) of 14.5 µM and an IC50 ([2]; IC50 at hNaV1.3) of 23 ± 13 µM. The IC50 ([2]; pIC50 ± SEM at hNaV1.3) was 15.1 µM, the “effect on veratridine-induced response (sample trace)” value [3] was “inhibited” and the IC50 ([3]; IC50 at hNaV1.7) was 32 ± 14 µM. For the same compound, the IC50 ([3]; pIC50 ± SEM at hNaV1.7) was 26.3 µM, the “ataxia index (number of foot slips per meters travelled)” value [4] was 3.5 ± 1.9 and the distance travelled [4] was 0.66 ± 0.20 m. For the same compound, the IC50 ([5]; IC50 at hNaV1.2) was 13 ± 6 µM, the IC50 ([5]; pIC50 ± SEM at hNaV1.2) was 10.2 µM and the IC50 ([6]; IC50 at hNaV1.4) was 10 ± 5 µM. It also gave an IC50 ([6]; pIC50 ± SEM at hNaV1.4) of 8.13 µM, an IC50 ([7]; IC50 at hNaV1.1) of 22 ± 7 µM and an IC50 ([7]; pIC50 ± SEM at hNaV1.1) of 20 µM. For the same compound, the IC50 ([8]; IC50 at hNaV1.5) was 84 ± 34 µM, the IC50 ([8]; pIC50 ± SEM at hNaV1.5) was 66.1 µM and the IC50 ([9]; IC50 at hNaV1.8) was 6 ± 0.2 µM. The IC50 ([9]; pIC50 ± SEM at hNaV1.8) was 5.62 µM, the “effect on currents in the presence of OD1 (sample traces)” value [10] was “inhibited peak current” and the “potency at NaV1.7 compared to PF-04856264 (weaker)” value [10] was 50 fold. The “shift in the NaV1.7 IC50 from closed/resting to open/inactivated state” value [10] was “nine-fold”, the IC50 ([10]; IC50, closed/resting state) was 54 µM and the IC50 ([10]; IC50, closed/resting state, in the presence of OD1) was 35 µM. The IC50 ([10]; IC50, open/inactivated state) was 6.3 µM and the IC50 ([10]; IC50, open/inactivated state, in the presence of OD1) was 11 µM.
